Source: patent publication US11827616B2, “Heterocyclic compounds as pesticides” (Discovery Purchaser Corporation, priority 2018, dated 2023)
Read-outs that look alike come from different tables or passages of the source.

Columns and labels:
Type in all cases: in vivo
Ctenocephalides felis [1] = assay: Ctenocephalides felis in vitro contact test with adult cat fleas; conditions: application rate 5 μg/cm^2 (=500 g/ha); after 48 h
Protocol: Ctenocephalides felis—In Vitro Contact Tests with Adult Cat Fleas
(§1) For the coating of the test tubes, 9 mg of active compound are first dissolved in 1 ml of acetone p.a. and then diluted to the desired concentration with acetone p.a. 250 μl of the solution are distributed homogeneously on the inner walls and the base of a 25 ml glass tube by turning and rocking on an orbital shaker (rocking rotation at 30 rpm for 2 h). With 900 ppm of active compound solution and internal surface area 44.7 cm^2, given homogeneous distribution, an area-based dose of 5 μg/cm^2 is achieved.
After the solvent has evaporated off, the tubes are populated with 5-10 adult cat fleas (Ctenocephalides felis), sealed with a perforated plastic lid and incubated in a horizontal position at room temperature and ambient humidity. After 48 h, efficacy is determined. To this end, the tubes are stood upright and the fleas are knocked to the base of the tube. Fleas which remain motionless at the base or move in an uncoordinated manner are considered to be dead or moribund.
100% efficacy means that all the fleas were dead or moribund. 0% efficacy means that no fleas were harmed.

Rhipicephalus sanguineus = Rhipicephalus sanguineus in vitro contact test with adult brown dog ticks; conditions: application rate 5 μg/cm^2 (=500 g/ha); after 48 h
Protocol: Rhipicephalus sanguineus—In Vitro Contact Tests with Adult Brown Dog Ticks
as §1
After the solvent has evaporated off, the tubes are populated with 5-10 adult dog ticks (Rhipicephalus sanguineus), sealed with a perforated plastic lid and incubated in a horizontal position in the dark at room temperature and ambient humidity. After 48 h, efficacy is determined. To this end, the ticks are knocked to the base of the tube and incubated on a hotplate at 45-50° C. for not more than 5 min. Ticks which remain motionless on the base or move in such an uncoordinated manner that they are unable to deliberately avoid the heat by climbing upwards are considered to be dead or moribund.
An efficacy of 100% means that all the ticks were dead or moribund. 0% efficacy means that none of the ticks were harmed.

Boophilus microplus = Boophilus microplus injection test; conditions: for pest or weed control at 0.02 mg: Rhipicephalus microplus, 168 h
Protocol: Boophilus microplus—Injection Test
(§2) Solvent: dimethyl sulfoxide
To produce a suitable active compound formulation, 10 mg of active compound are mixed with 0.5 ml of solvent and the concentrate is diluted to the desired concentration with solvent.
1 μl of the active compound solution is injected into the abdomen of 5 engorged adult female cattle ticks (Boophilus microplus). The animals are transferred into dishes and kept in a climate-controlled room.
Efficacy is assessed after 7 days by laying of fertile eggs. Eggs which are not visibly fertile are stored in a climate-controlled cabinet until the larvae hatch after about 42 days. An efficacy of 100% means that none of the ticks has laid any fertile eggs; 0% means that all the eggs are fertile.

Ctenocephalides felis [2] = assay: Ctenocephalides felis oral test; conditions: application rate 100 ppm in citrated cattle blood; after 2 days
Protocol: Ctenocephalides felis—Oral Test
as §2
To produce a suitable active compound formulation, 10 mg of active compound are mixed with 0.5 ml of dimethyl sulfoxide. Dilution with citrated cattle blood gives the desired concentration.
About 20 unfed adult cat fleas (Ctenocephalides felis) are placed into a chamber which is closed at the top and bottom with gauze. A metal cylinder whose bottom end is closed with parafilm is placed onto the chamber. The cylinder contains the blood/active compound formulation, which can be imbibed by the fleas through the parafilm membrane.
After 2 days, the kill in % is determined. 100% means that all of the fleas have been killed; 0% means that none of the fleas have been killed.

Lucilia cuprina = Lucilia cuprina test; conditions: application rate 100 ppm; L1 larvae; after 2 days
Protocol: as §2
To produce a suitable active compound formulation, 10 mg of active compound are mixed with 0.5 ml of dimethyl sulfoxide, and the concentrate is diluted with water to the desired concentration.
About 20 L1 larvae of the Australian sheep blowfly (Lucilia cuprina) are transferred into a test vessel containing minced horsemeat and the active compound formulation of the desired concentration.
After 2 days, the kill in % is determined. 100% means that all the larvae have been killed; 0% means that no larvae have been killed.

Spodoptera frugiperda = Spodoptera frugiperda spray test; conditions: for efficacy: application rate 500 g/ha, after 7 days
Protocol: Spodoptera frugiperda—Spray Test
(§3) Solvent: 78.0 parts by weight of acetone • • 1.5 parts by weight of dimethylformamide
(§4) Emulsifier: alkylaryl polyglycol ether
(§5) To produce a suitable active compound formulation, 1 part by weight of active compound is dissolved with the specified parts by weight of solvent and made up to the desired concentration with water containing an emulsifier concentration of 1000 ppm. To produce further test concentrations, the formulation is diluted with emulsifier-containing water.
Leaf discs of maize (Zea mays) are sprayed with an active compound formulation of the desired concentration and, after drying, populated with caterpillars of the fall armyworm (Spodoptera frugiperda).
After 7 days, the efficacy in % is determined. 100% means that all the caterpillars have been killed; 0% means that no caterpillar has been killed.

Tetranychus urticae = Tetranychus urticae spray test, OP-resistant; conditions: after 6 days
Protocol: Tetranychus urticae—Spray Test, OP-Resistant
Solvent: 78.0 Parts by Weight of Acetone • • 1.5 parts by weight of dimethylformamide
as §4, §5
Discs of bean leaves (Phaseolus vulgaris) infested with all stages of the greenhouse red spider mite (Tetranychus urticae) are sprayed with an active compound formulation of the desired concentration.
After 6 days, the efficacy in % is determined. 100% means that all the spider mites have been killed; 0% means that no spider mites have been killed.

Phaedon cochleariae = Phaedon cochleariae spray test; conditions: for efficacy: after 7 days
Protocol: Phaedon cochleariae—Spray Test
as §3, §4, §5
Discs of Chinese cabbage leaves (Brassica pekinensis) are sprayed with an active compound formulation of the desired concentration and, after drying, populated with larvae of the mustard beetle (Phaedon cochleariae).
After 7 days, the efficacy in % is determined. 100% means that all the beetle larvae have been killed; 0% means that no beetle larvae have been killed.

[3] = test system: Anopheles gambiae strain RSPH (homozygot kdr); assay: Anopheles test (ANPHGB surface treatment); conditions: read-out: efficacy (mortality in %)
Protocol: Anopheles Test (ANPHGB Surface Treatment)
Solvent: acetone+2000 ppm rapeseed oil methyl ester (RME)
To produce an appropriate active compound formulation, the active compound is dissolved in the solvent (2 mg/ml). The active compound formulation is pipetted onto a glazed tile and, after it has dried off, adult mosquitoes of the species Anopheles gambiae strain RSPH (homozygot kdr) are placed onto the treated tile. The exposure time is 30 minutes.
24 hours after contact with the treated surface, mortality in % is determined. 100% means that all mosquitoes have been killed; 0% means that none of the mosquitoes have been killed.

[4] = application rate 20 μg/animal, after 7 days

SMILES | efficacy (fleas dead or moribund) (Ctenocephalides felis [1]) [%] | efficacy (ticks dead or moribund) (Rhipicephalus sanguineus) [%] | efficacy (laying of fertile eggs) (Boophilus microplus; [4]) [%] | efficacy (kill in %) (Ctenocephalides felis [2]) [%] | efficacy (kill in %) (Lucilia cuprina) [%] | efficacy (Spodoptera frugiperda) [%] | efficacy (Tetranychus urticae; application rate 500 g/ha) [%] | efficacy (Phaedon cochleariae; application rate 500 g/ha) [%] | efficacy (Tetranychus urticae; application rate 100 g/ha) [%] | efficacy (Phaedon cochleariae; application rate 100 g/ha) [%] | pest or weed control at 0.02 mg (Boophilus microplus; read-out: efficacy (laying of fertile eggs), application rate 20 μg/animal, after 7 days) [%] | pest or weed control at 500 g/ha (Phaedon cochleariae; Phaedon cochleariae, 168 h, read-out: efficacy) [%] | pest or weed control at 500 g/ha (Spodoptera frugiperda; Spodoptera frugiperda, 168 h, read-out: efficacy) [%] | mortality at 20 mg/m2 [3] [%] | pest or weed control at 0.02 mg (Boophilus microplus; application rate 20 μg/animal, after 7 days, read-out: efficacy (laying of fertile eggs)) [%] | mortality at 20 mg/m2 ([3]; application rate 20 mg/m^2, exposure 30 minutes, 24 hours after contact) [%] | mortality at 100 mg/m2 ([3]; application rate 100 mg/m^2, exposure 30 minutes, 24 hours after contact) [%]
CON(C)CCOc1cnc(COc2ccc(Cl)c(OC(F)(F)F)c2)c(F)c1 [Example 72] | 100 | 100 | 100 | 95 | 100 | 83 | 100 | – | – | – | – | – | – | – | – | – | –
CON(C)CCOc1cnc(COc2ccc(Cl)c(I)c2)c(F)c1 [Example 76] | 100 | 100 | 100 | – | – | – | – | 100 | 90 | – | – | – | – | – | – | – | –
CC(C)N(C)CCOc1cnc(COc2cccc3c(Cl)c(Cl)ccc23)c(F)c1 [Example 44] | 100 | – | 100 | – | – | 100 | – | 100 | 90 | – | – | – | – | – | – | – | –
CON(C)CCOc1cnc(COc2ccc(F)c(-c3cccc(Cl)c3)c2)c(F)c1 [Example 49] | 100 | 100 | 100 | – | 100 | 100 | 100 | 100 | – | – | – | – | – | – | – | – | –
CON(C)CCOc1ccc(COc2cccc(-c3ccccc3)c2)cn1 [Example 13] | 100 | 100 | 100 | – | – | – | 90 | 100 | – | – | – | – | – | – | – | – | –
CON(C)CCOc1cnc(COc2ccc(Br)c3ccccc23)c(F)c1 [Example 21] | 100 | 100 | 100 | 80 | 100 | 100 | 90 | 100 | – | – | – | – | – | – | – | – | –
CON(C)CCOc1ccc(COc2cccc3c(Cl)c(Cl)ccc23)cn1 [Example 1] | 100 | 100 | 100 | – | 100 | 100 | 100 | 100 | – | – | – | – | – | – | – | – | –
CN(CC#N)CCOc1cnc(COc2ccc(Cl)c3ccccc23)c(F)c1 [Example 27] | – | 100 | 100 | – | – | 100 | 90 | 100 | – | – | – | – | – | – | – | – | –
CON(C)CCOc1cnc(COc2ccc(Cl)c(-c3cccc(F)c3)c2)c(F)c1 [Example 61] | 100 | 100 | 100 | 90 | 100 | 100 | 90 | – | – | – | – | – | – | – | – | – | –
CON(C)CCOc1cnc(COc2ccc(Cl)c(-c3cccc(Cl)c3)c2)c(F)c1 [Example 56] | 100 | 100 | 100 | – | 100 | 100 | 100 | 100 | – | – | – | – | – | – | – | – | –
CON(C)CCOc1cnc(COc2ccc(Cl)c(-c3ccccc3)c2)c(F)c1 [Example 63] | 100 | 100 | 100 | 95 | 100 | 100 | 100 | – | – | 100 | – | – | – | – | – | – | –
CN(CC#N)CCOc1cnc(COc2ccc3oc4ccccc4c3c2)c(F)c1 [Example 29, {[2-({6-[(dibenzo[b,d]furan-2-yloxy)methyl]-5-fluoropyridin-3-yl}oxy)ethyl](methyl)amino}acetonitrile] | – | – | – | 100 | 100 | – | – | – | – | – | 100 | 100 | 100 | 80 to 100 | – | – | –
CON(C)CCOc1ccc(COc2ccc(F)c(-c3cccc(Cl)c3)c2)nc1 [Example 65] | 100 | 100 | 100 | – | 90 | 100 | 100 | – | – | – | – | – | – | – | – | – | –
CON(C)CCOc1ccc(COc2cccc3c(Cl)c(Cl)ccc23)nc1F [Example 17, 2-[(6-{[(5,6-dichloro-1-naphthyl)oxy]methyl}-2-fluoropyridin-3-yl)oxy]-N-methoxy-N-methylethanamine] | – | – | – | – | – | – | – | – | – | – | – | – | – | – | 100 | 80 to 100 | 80 to 100
CON(C)CCOc1cnc(COc2cccc(-c3ccccc3)c2)c(F)c1 [Example 70] | 100 | 100 | 100 | – | 100 | – | 90 | 100 | – | – | – | – | – | – | – | – | –
CON(C)CCOc1ccc(COc2cccc(-c3cccc(OC(F)(F)F)c3)c2)nc1 [Example 64] | 100 | 100 | 100 | – | – | 83 | 90 | 100 | – | – | – | – | – | – | – | – | –
